Measured values published in article PMC11111408, “Concurrent inhibition of oncogenic and wild-type RAS-GTP for cancer therapy” (Nature, 2024).
Values joined by “and” are separate entries in the source; they are usually repeats but may differ in a detail not shown here. Equal values may be shown once.

Legend:
[1] = system: Capan-1, SW620, AsPC-1, HPAC, NCI-H358, PSN1, HUPT3, HCT 116, Hs 766T, SK-MEL-30, KU1919, NCI-H1975, A375; assay: Proliferation (CTG) in human cancer cell lines; type: cell-based
Description: Data points show biological duplicates normalized to vehicle control. […] Data points show biological duplicates normalized to vehicle control from 1 of 2–26 independent experiments. Source Data
(§1) Alternatively, cells were seeded in round-bottom ultra-low attachment 96-well plates, centrifuged at 1,000 rpm for 10 min to pellet the cells, and incubated overnight or up to 72 h to allow for 3D spheroid formation. […] Cell viability was determined by CellTiter-Glo 2.0 reagent (2D CTG) (Promega, G9243) or 3D CellTiter-Glo reagent (3D CTG) (Promega, G9683) according to the manufacturer’s protocols. Luminescence was detected using a SpectraMax M5 Plate Reader (Molecular Devices) of Perkin Elmer Enspire. Luminescence signal was normalized to vehicle-treated wells (normalized signal (%) = (luminescence (treated)/mean luminescence (vehicle)) × 100%). […] Data were plotted as log [inhibitor (M)], and a four-parameter sigmoidal concentration response model was fitted to the data to calculate EC50. […] Pa16C MEK1 mutant cells were evaluated by live-cell counting using Calcein AM and a SpectraMax i3X multi-mode detection platform (Molecular Devices). Growth percentages were calculated by normalizing the treated cell counts to their respective untreated cell counts.

[2] = system: CT26 syngeneic tumours engineered to express KRAS^G12C; assay: Immune cell response in eCT26 KRAS^G12C syngeneic tumours; type: in vivo, mouse; conditions: 24 hours post 4 days of treatment, 25 mg/kg PO QD, individual mice
Description: Tumor tissue was minced, processed with the Dri Tumor & Tissue Dissociation Reagent from BD Biosciences and homogenized with the gentleMACS™ Dissociator. Tumor cell suspensions were incubated at 4°C for 30 minutes with Mouse BD Fc Block (Clone 2.4G2 from BD Pharmingen), 10 minutes with Blue Dead Cell Stain Kit (Invitrogen) and 30 min in cell staining buffer. […] Cells were analyzed on a 4-laser Cytek Aurora (Cytek Biosciences), and data analysis was done using SpectroFlo (Cytek Biosciences) and FlowJo (FlowJo LLC.).

CYPA = molecular target: T1, CYPA (Homo sapiens, UniProt P62937); assay: CYPA binding affinity (Kd1), SPR; conditions: steady state, (95% CI)
T1 construct: His6-TEV-AviTag-CYPA (full-length); His6-TEV (N); made in house; host or cells: BL21(DE3) Escherichia coli
Description: The binding affinity of compounds for CYPA (Kd1) was assessed by SPR on a Biacore 8K instrument as previously described.

A375 cells = assay: Cell proliferation (CTG); type: cell-based, human
Description: as §1

[3] = system: adagrasib-resistant NCI-H358 cells with secondary NRAS^Q61K mutation; assay: Proliferation (CTG) and western blots of parental and adagrasib-resistant NCI-H358 (NRAS^Q61K); type: cell-based, human; conditions: NCI-H358 clone with concurrent NRAS^Q61K mutation
NRAS WT = NRAS WT (Homo sapiens, UniProt P01111+P62937); assay: RAS binding affinity of compound-bound CYPA (Kd2), SPR; conditions: steady state SPR, (95% CI)

Structure (SMILES): CCn1c(-c2cc(N3CCN(C4CC4)CC3)cnc2[C@H](C)OC)c2c3cc(ccc31)-c1csc(n1)C[C@H](NC(=O)[C@H]1[C@@H]3COC[C@@H]31)C(=O)N1CCC[C@H](N1)C(=O)OCC(C)(C)C2 [RMC-7977]
- Cell proliferation (CellTiter-Glo) ([1]; ASPC1, RMC-7977 1.52 nM): 68.8907 and 77.7752
- Cell proliferation (CellTiter-Glo) ([1]; ASPC1, RMC-7977 4.57 nM): 54.6049 and 56.084
- Cell proliferation (CellTiter-Glo) ([1]; ASPC1, RMC-7977 13.72 nM): 31.4521 and 36.2763
- Cell proliferation (CellTiter-Glo) ([1]; ASPC1, RMC-7977 41.15 nM): 19.3277 and 20.3014
- Cell proliferation (CellTiter-Glo) ([1]; ASPC1, RMC-7977 123.46 nM): 12.8203 and 13.4559
- Cell proliferation (CellTiter-Glo) ([1]; ASPC1, RMC-7977 370.39 nM): 9.7785 and 11.4734
- Cell proliferation (CellTiter-Glo) ([1]; ASPC1, RMC-7977 1111.14 nM): 8.521 and 9.0438
- Cell proliferation (CellTiter-Glo) ([1]; ASPC1, RMC-7977 3333.41 nM): 6.811 and 10.0312
- Cell proliferation (CellTiter-Glo) ([1]; ASPC1, RMC-7977 10000.00 nM): 5.308 and 5.788
- Cell proliferation (CellTiter-Glo) ([1]; CAPAN1, RMC-7977 1.52 nM): 59.9636 and 63.7997
- Cell proliferation (CellTiter-Glo) ([1]; CAPAN1, RMC-7977 4.57 nM): 35.7372 and 42.3141
- Cell proliferation (CellTiter-Glo) ([1]; CAPAN1, RMC-7977 13.72 nM): 18.382 and 18.5053
- Cell proliferation (CellTiter-Glo) ([1]; CAPAN1, RMC-7977 41.15 nM): 11.8827 and 13.681
- Cell proliferation (CellTiter-Glo) ([1]; CAPAN1, RMC-7977 123.46 nM): 8.811 and 11.6796
- Cell proliferation (CellTiter-Glo) ([1]; CAPAN1, RMC-7977 370.39 nM): 5.4975 and 10.0571
- Cell proliferation (CellTiter-Glo) ([1]; CAPAN1, RMC-7977 1111.14 nM): 6.166 and 6.972
- Cell proliferation (CellTiter-Glo) ([1]; CAPAN1, RMC-7977 3333.41 nM): 4.455 and 5.8786
- Concentration-response, normalized signal (replicate wells) ([1]; HCT116, RMC-7977 4.00 nM): 82.5863 and 97.7262 and 86.8037 and 89.4627 and 85.957 and 97.0725 and 88.0274 and 98.1156 and 87.4457 and 99.4211 and 79.8906 and 84.8325
- Concentration-response, normalized signal (replicate wells) ([1]; HCT116, RMC-7977 36.01 nM): 18.5896 and 19.6721 and 20.3034 and 20.9024 and 39.3935 and 41.5603 and 31.7309 and 32.7207 and 34.8483 and 44.0944 and 29.6731 and 29.9889
- Concentration-response, normalized signal (replicate wells) ([1]; HCT116, RMC-7977 324.09 nM): 2.22 and 2.64 and 1.664 and 2.991 and 5.879 and 6.569 and 5.425 and 6.586 and 5.001 and 5.957 and 2.283 and 3.5458
- Concentration-response, normalized signal (replicate wells) ([1]; HCT116, RMC-7977 972.25 nM): 1.618 and 2.167
- Concentration-response, normalized signal (replicate wells) ([1]; cell line heading above the shown rows, RMC-7977 10000.00 nM): 4.998 and 6.7184
- AH1 specific % of CD8+ cells [2]: 37.8% and 45.2% and 69.2% and 39.2%
- CD8+ % of CD45+ cells [2]: 36.2% and 31.8% and 38.7% and 46.1%
- CD45+ % of live cells [2]: 77.4% and 74.9% and 84.2% and 83.5%
- Kd (CYPA): 195 nM
- inhibition of proliferation (A375 cells; A375, BRAF^V600E, RAS-independent): No inhibition
- EC50 (A375 cells; Homo sapiens, A-375, A375, CTG, (95% CI)): 8830 nM
- RAS signalling and growth of adagrasib-resistant clone [3]: inhibited RAS signalling and growth
- Kd (NRAS WT): 101 nM
